Results reported in publication PMC3285636, “Identification by Virtual Screening and In Vitro Testing of Human DOPA Decarboxylase Inhibitors” (PLoS ONE, 2012).

What was measured:
[1] = target: T1, human DDC (Homo sapiens, UniProt P20711); assay: Assay of the inhibitory activity: spectrophotometric measurement of dopamine production by DDC; assay type: biochemical; conditions: for IC50: 50 nM enzyme, 0.1 mM L-Dopa, 10 µM PLP, pH 7.4, 25°C, 9 concentrations in duplicate, read-out: IC50; for Ki: competitive inhibition, Table 4, third screening; for BE (binding efficiency): binding energy per unit of mass, from Ki and molecular weight in kDa
T1 construct: made in house
T1 sequence (P20711 1-480): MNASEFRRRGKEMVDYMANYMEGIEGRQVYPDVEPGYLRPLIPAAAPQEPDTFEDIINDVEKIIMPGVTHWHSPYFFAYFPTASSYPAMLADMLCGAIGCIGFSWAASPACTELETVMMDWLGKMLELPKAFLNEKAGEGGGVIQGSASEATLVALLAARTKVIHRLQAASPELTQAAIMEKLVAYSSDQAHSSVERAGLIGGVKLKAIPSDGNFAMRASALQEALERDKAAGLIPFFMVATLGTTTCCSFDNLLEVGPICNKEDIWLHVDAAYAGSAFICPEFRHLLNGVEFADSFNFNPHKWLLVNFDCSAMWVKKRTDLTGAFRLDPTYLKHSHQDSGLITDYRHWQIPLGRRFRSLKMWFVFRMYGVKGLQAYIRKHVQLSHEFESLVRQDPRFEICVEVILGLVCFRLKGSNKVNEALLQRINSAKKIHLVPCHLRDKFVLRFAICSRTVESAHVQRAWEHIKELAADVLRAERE
Protocol: DDC activity was determined by measuring the production of dopamine with a spectrophotometric assay outlined by Sherald et al. and modified by Charteris and John. The reaction was carried out in 0.1 M potassium phosphate buffer pH 7.4 at 25°C for 1 min and stopped by inactivation of the enzyme at 100°C for 90 sec. The inhibitory assay was performed by measuring the decarboxylase activity of DDC with 50 nM enzyme, 0.1 mM L-Dopa, and 10 µM PLP in the presence and in the absence of a fixed amount of each compound. Various amounts of dimethyl sulphoxyde (DMSO) were necessary to solubilize the compounds in 100 mM potassium phosphate buffer, pH 7.4. […] Compounds were evaluated at 9 concentrations, and each in duplicate. IC50 values were derived by nolinear regression analysis. The related inhibition type of the compounds on human DDC was identified from Lineweaver–Burk plots, and Ki and/or Ki′ values for the inhibitors tested were calculated by the software Origin 7.0.

[2] = target: T1, human DDC; assay: Enzyme-ligand equilibrium dissociation constant from visible CD signal changes of DDC; assay type: binding; conditions: change of 420 nm or 335 nm CD band, 100 mM potassium phosphate pH 7.4
Protocol: The equilibrium dissociation constant for each tested compound from DDC was determined by monitoring the decrease in the 420 nm CD signal of DDC (7 µM) in the presence of various ligand concentrations in 100 mM potassium phosphate buffer, pH 7.4. In any case, the maximun DMSO concentration in the mixture was kept lower than 1% (v/v). The KD values were obtained from the fitting of the data to the equation [drawing 3] where [E]t and [L]t represent the total concentrations of DDC dimer and ligand, respectively, Y refers to the visible CD signal change at 420 nm at the ligand concentration [L], and Ymax refers to the CD signal when all enzyme molecules are complexed with the ligand. CD measurements were performed with a Jasco J-710 spectropolarimeter using quartz cuvettes with 1 cm path length.

[3] = test system: pig kidney DDC; conditions: cited from earlier work
[4] = design: method as in PMID 580398; conditions: animals and humans; cited from earlier work

Compound	IC50 [1] [µM]	Ki [1] [µM]	BE (binding efficiency) [1]	Kd [2] [µM]	DDC inhibition in words [3]	Metabolism before reaching the arterial blood [4]
Cc1ccccc1-c1nnc(S)n1/N=C/c1ccc(O)c(O)c1 [Compound 41]	30.1 ± 2.1	9.8 ± 0.5	15,4	6.1 ± 0.5		
Cc1ccc(-c2nnc(S)n2/N=C/c2ccc(O)c(O)c2)cc1 [Compound 42]	5.2 ± 0.4	2 ± 0.2	17,5	2.7 ± 0.5		
Cc1cccc(-c2nnc(S)n2/N=C/c2ccc(O)c(O)c2)c1 [Compound 43]	3.8 ± 0.6	1.9 ± 0.1	17,5	2.8 ± 0.5		
COc1cccc(-c2nnc(S)n2/N=C/c2ccc(O)c(O)c2)c1 [Compound 45]	6.2 ± 0.3	2 ± 0.1	16,7	1.5 ± 0.3		
NC(CO)C(=O)NNCc1ccc(O)c(O)c1O (centres unmarked) [benserazide, trihydroxybenzylhydrazine seryl derivative]					not a powerful DDC inhibitor	completely metabolized before it reaches the arterial blood
C[C@@](Cc1ccc(O)c(O)c1)(NN)C(=O)O [carbidopa, L-α-methyl-α-hydrazino-3,4-dihydroxyphenylpropionic acid]					powerful irreversible DDC inhibitors	
NNCc1ccc(O)c(O)c1O [trihydroxybenzylhydrazine]					powerful irreversible DDC inhibitors	
